From patent US8575201B2 (Boehringer Ingelheim International GmbH, priority 2010, dated 2013) come the findings set out here.

Experiment [1] has as its system synthesis of LTB4 in human whole blood. Description: Human whole blood LTB4 production inhibition assay. The experiment is classed as cell-based. The note with it: calcimycin stimulated, read-out: hWB LTB4 IC50. The procedure: Compounds are additionally tested in a human whole blood assay to determine their ability to inhibit the synthesis of LTB4 in a cellular system. Compounds are combined with heparinized human whole blood and incubated for 15 minutes at 37° C. Calcimycin (20 μM final, prepared in phosphate-buffered saline, pH 7.4) is then added and the mixture is incubated for another 30 minutes at 37° C. The samples are centrifuged for 5 min at low speed (1500×g) and the plasma layer is removed. Plasma LTB4 concentrations are then measured using an antibody-based homogenous time-resolved fluorescence method (CisBio, Bedford, Mass.).

For experiment [2], the target named is recombinant human FLAP protein (Homo sapiens (Human), UniProt P20292). Description: FLAP binding assay (Scintillation Proximity Assay, displacement of [125I]L-691,831). Particulars: read-out: FLAP SPA IC50. The protocol: Assessment of Biological Properties 1. Binding Assay: Compounds are assessed for the ability to bind to FLAP in a binding assay that measures compound-specific displacement of an iodinated (^125I) FLAP inhibitor via a Scintillation Proximity Assay format (adapted from S. Charleson et al., Mol. Pharmacol., 1992, 41, 873-879). […] The cells are lysed with a Dounce homogenizer and the material is centrifuged at 10,000×g for 10 minutes. The supernatant is then collected and centrifuged at 100,000×g for 60 minutes. To prepare membrane protein for an assay, an aliquot of the 100,000×g pellet is resuspended in 1 ml of buffer A, Dounce homogenized, and finally subjected to polytron mixing (30 seconds). […] Mol. Pharmacol., 41, 873-879, 1992) and finally 50 μl of the bead/protein mixture. (final concentrations: beads, 200 μg/well; protein, 5 μg/well; […] The plates are shaken for 2 h before reading on a Microbeta plate reader.
Background: Scintillation proximity formats need no separation of bound from free tracer.

SMILES strings stand for the structures.

Sequence of recombinant human FLAP protein (P20292 whole entry): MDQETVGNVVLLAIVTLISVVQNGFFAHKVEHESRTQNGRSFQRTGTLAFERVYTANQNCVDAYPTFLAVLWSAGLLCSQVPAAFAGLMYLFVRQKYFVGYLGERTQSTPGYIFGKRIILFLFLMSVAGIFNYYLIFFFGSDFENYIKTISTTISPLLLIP

As for `CNc1cnc(-c2ccc(C3(c4noc(-c5cnn(C6COC6)c5)n4)CCC3)cn2)cn1` [Example 176, Methyl-[5-(5-{1-[5-(1-oxetan-3-yl-1H-pyrazol-4-yl)-[1,2,4]oxadiazol-3-yl]-cyclobutyl}-pyridin-2-yl)-pyrazin-2-yl]-amine], the results for the half-maximal inhibitory concentration (IC50) in experiment [1] and in experiment [2] were 73 nM and 23 nM, respectively.

For the compound `Nc1ncc(-c2ccc(C3(c4noc(-c5ccc(N6CCN[C@@H](C(=O)O)C6)nc5)n4)CCC3)cn2)cn1` [Example 42, (2R)-4-[5-(3-{1-[6-(2-aminopyrimidin-5-yl)pyridin-3-yl]cyclobutyl}-1,2,4-oxadiazol-5-yl)pyridin-2-yl]piperazine-2-carboxylic acid], the half-inhibitory concentration (IC50) in experiment [1] is above 5000 nM; in experiment [2] it was 7.7 nM.

Regarding `Cc1ccc(-c2nc(C3(c4ccc(-c5cnc(N)nc5)nc4)CCC3)no2)c(O)n1` [Example 97, 3-(3-{1-[6-(2-aminopyrimidin-5-yl)pyridin-3-yl]cyclobutyl}-1,2,4-oxadiazol-5-yl)-6-methylpyridin-2-ol], the IC50 in experiment [1] was above 5000 nM; in experiment [2], 19 nM.

For `Cn1cc(-c2nc(C3(c4ccc(-c5cnc(N)nc5)nc4)CCC3)no2)ccc1=O` [Example 26, 5-(3-{1-[6-(2-aminopyrimidin-5-yl)pyridin-3-yl]cyclobutyl}-1,2,4-oxadiazol-5-yl)-1-methylpyridin-2(1H)-one], the 50% inhibitory concentration (IC50) turned out to be 730 nM in experiment [1] and 110 nM in experiment [2].

As to `CCOC(=O)CNc1ccc(-c2nc(C3(c4ccc(-c5cnc(N)nc5)nc4)CCC3)no2)cn1` [Example 13, ethyl N-[5-(3-{1-[6-(2-aminopyrimidin-5-yl)pyridin-3-yl]cyclobutyl}-1,2,4-oxadiazol-5-yl)pyridin-2-yl]glycinate], the results for the IC50 in experiment [1] and in experiment [2] were 170 nM and 3.9 nM, respectively.

With `Nc1ncc(-c2ccc(C3(c4noc(-c5ccc(=O)[nH]c5)n4)CCC3)cn2)cn1` [Example 108, 5-(3-{1-[6-(2-aminopyrimidin-5-yl)pyridin-3-yl]cyclobutyl}-1,2,4-oxadiazol-5-yl)pyridin-2(1H)-one], the IC50 in experiment [1] came to 720 nM; in experiment [2] it was 48 nM.

As for `Nc1ncc(-c2ccc(C3(c4noc(-c5cn[nH]c5)n4)CCC3)cn2)cn1` [Example 90, 5-(5-{1-[5-(1H-pyrazol-4-yl)-1,2,4-oxadiazol-3-yl]cyclobutyl}pyridin-2-yl)pyrimidin-2-amine], the concentration for half-maximal inhibition (IC50) in experiment [1] came out at 140 nM; in experiment [2], 7 nM.

For the compound `CCOC(=O)CCN1CCN(c2ccc(-c3nc(C4(c5ccc(-c6cnc(N)nc6)nc5)CCC4)no3)cn2)CC1` [Example 47, ethyl 3-{4-[5-(3-{1-[6-(2-aminopyrimidin-5-yl)pyridin-3-yl]cyclobutyl}-1,2,4-oxadiazol-5-yl)pyridin-2-yl]piperazin-1-yl}propanoate], the values for the IC50 in experiment [1] and in experiment [2] were 170 nM and 3.4 nM, respectively.

For the compound `Nc1ncc(-c2ccc(C3(c4noc(-c5cnn(CCN6CCOCC6)c5)n4)CCC3)cn2)cn1` [Example 140, 5-{5-[1-(5-{1-[2-(morpholin-4-yl)ethyl]-1H-pyrazol-4-yl}-1,2,4-oxadiazol-3-yl)cyclobutyl]pyridin-2-yl}pyrimidin-2-amine], the 50% inhibitory concentration (IC50) in experiment [1] was 110 nM; in experiment [2], 15 nM.

In the case of `CN(C)C(=O)[C@@H]1CCCN1c1ccc(-c2nc(C3(c4ccc(-c5cnc(N)nc5)nc4)CCC3)no2)cn1` [Example 34, 1-[5-(3-{1-[6-(2-aminopyrimidin-5-yl)pyridin-3-yl]cyclobutyl}-1,2,4-oxadiazol-5-yl)pyridin-2-yl]-N,N-dimethyl-L-prolinamide], the IC50 in experiment [1] was found to be 1800 nM; in experiment [2], 40 nM.

For the compound `CCn1cc(-c2nc(C3(c4ccc(-c5cnc(N)nc5)nc4)CCC3)no2)cn1` [Example 63, 5-(5-{1-[5-(1-ethyl-1H-pyrazol-4-yl)-1,2,4-oxadiazol-3-yl]cyclobutyl}pyridin-2-yl)pyrimidin-2-amine], the results for the IC50 in experiment [1] and in experiment [2] were 190 nM and 8.8 nM, respectively.

For `Nc1ncc(-c2ccc(C3(c4noc(-c5nc[nH]n5)n4)CCC3)cn2)cn1` [Example 120, 5-(5-{1-[5-(1H-1,2,4-triazol-3-yl)-1,2,4-oxadiazol-3-yl]cyclobutyl}pyridin-2-yl)pyrimidin-2-amine], the half-inhibitory concentration (IC50) in experiment [1] was above 5000 nM; in experiment [2] it was 200 nM.

On to `Cn1nccc1-c1nc(C2(c3ccc(-c4cnc(N)nc4)nc3)CCC2)no1` [Example 124, 5-(5-{1-[5-(1-methyl-1H-pyrazol-5-yl)-1,2,4-oxadiazol-3-yl]cyclobutyl}pyridin-2-yl)pyrimidin-2-amine], for which the half-inhibitory concentration (IC50) came to 210 nM in experiment [1] and 11 nM in experiment [2].

In the case of `Nc1ccc(-c2nc(C3(c4ccc(-c5cnc(N)nc5)nc4)CCC3)no2)cn1` [Example 111, 5-(5-{1-[5-(6-aminopyridin-3-yl)-1,2,4-oxadiazol-3-yl]cyclobutyl}pyridin-2-yl)pyrimidin-2-amine], the IC50 in experiment [1] was determined as 74 nM; in experiment [2], 4.2 nM.

With `Nc1ncc(-c2ccc(C3(c4noc(-c5cnn(CC(F)F)c5)n4)CCC3)cn2)cn1` [Example 68, 5-[5-(1-{5-[1-(2,2-difluoroethyl)-1H-pyrazol-4-yl]-1,2,4-oxadiazol-3-yl}cyclobutyl)pyridin-2-yl]pyrimidin-2-amine], the half-inhibitory concentration (IC50) in experiment [1] is 160 nM; in experiment [2], 6.1 nM.

Consider `CS(=O)(=O)c1ccc(-c2nc(C3(c4ccc(-c5cnc(N)nc5)nc4)CCC3)no2)cn1` [Example 119, 5-[5-(1-{5-[6-(methylsulfonyl)pyridin-3-yl]-1,2,4-oxadiazol-3-yl}-cyclobutyl)pyridin-2-yl]pyrimidin-2-amine], for which the values for the IC50 in experiment [1] and in experiment [2] were 230 nM and 62 nM, respectively.

Regarding `COc1ccncc1-c1nc(C2(c3ccc(-c4cnc(N)nc4)nc3)CCC2)no1` [Example 86, 5-(5-{1-[5-(4-methoxypyridin-3-yl)-1,2,4-oxadiazol-3-yl]cyclobutyl}pyridin-2-yl)pyrimidin-2-amine], the results for the IC50 in experiment [1] and in experiment [2] were 1100 nM and 18 nM, respectively.

As to `Nc1ncc(-c2ccc(C3(c4noc(-c5ccc(NC6CC6)nc5)n4)CCC3)cn2)cn1` [Example 9, 5-[5-(1-{5-[6-(cyclopropylamino)pyridin-3-yl]-1,2,4-oxadiazol-3-yl}cyclobutyl)pyridin-2-yl]pyrimidin-2-amine], the IC50 in experiment [1] was determined as 320 nM; in experiment [2], 2.9 nM.

In the case of `COCCNc1ccc(-c2nc(C3(c4ccc(-c5cnc(N)nc5)nc4)CCC3)no2)cn1` [Example 118, 5-{5-[1-(5-{6-[(2-methoxyethyl)amino]pyridin-3-yl}-1,2,4-oxadiazol-3-yl)cyclobutyl]pyridin-2-yl}pyrimidin-2-amine], the figures for the IC50 in experiment [1] and in experiment [2] were 84 nM and 2.8 nM, respectively.

In the case of `Nc1ncc(-c2ccc(C3(c4noc(-c5cnn6cccnc56)n4)CCC3)cn2)cn1` [Example 25, 5-(5-{1-[5-(pyrazolo[1,5-a]pyrimidin-3-yl)-1,2,4-oxadiazol-3-yl]cyclobutyl}pyridin-2-yl)pyrimidin-2-amine], the IC50 in experiment [1] was 46 nM; in experiment [2], 4 nM.

`CNc1ncccc1-c1nc(C2(c3ccc(-c4cnc(N)nc4)nc3)CCC2)no1` [Example 122, 5-[5-(1-{5-[2-(methylamino)pyridin-3-yl]-1,2,4-oxadiazol-3-yl}cyclobutyl)pyridin-2-yl]pyrimidin-2-amine]: the results for the concentration for half-maximal inhibition (IC50) in experiment [1] and in experiment [2] were 3800 nM and 28 nM, respectively.

Broadly, the IC50 is the point on the concentration scale where inhibition reaches its midpoint.
